Measurements as given in ChEMBL document CHEMBL4024702, “Covalent Modifiers: A Chemical Perspective on the Reactivity of α,β-Unsaturated Carbonyls with Thiols via Hetero-Michael Addition Reactions” (J Med Chem, 2017).

Columns and labels:
[1] = Cysteamine reactivity of the compound in TRIS-HCL assessed as second order rate constant at 40 uM and pH 7.4 by stopped-flow assay
Papain (Carica papaya) = molecular target: T1, Papain (Carica papaya) (UniProt P00784); assay: Irreversible inhibition of Carica papaya papain assessed as ratio of Kinact to Ki
T1 sequence (whole entry): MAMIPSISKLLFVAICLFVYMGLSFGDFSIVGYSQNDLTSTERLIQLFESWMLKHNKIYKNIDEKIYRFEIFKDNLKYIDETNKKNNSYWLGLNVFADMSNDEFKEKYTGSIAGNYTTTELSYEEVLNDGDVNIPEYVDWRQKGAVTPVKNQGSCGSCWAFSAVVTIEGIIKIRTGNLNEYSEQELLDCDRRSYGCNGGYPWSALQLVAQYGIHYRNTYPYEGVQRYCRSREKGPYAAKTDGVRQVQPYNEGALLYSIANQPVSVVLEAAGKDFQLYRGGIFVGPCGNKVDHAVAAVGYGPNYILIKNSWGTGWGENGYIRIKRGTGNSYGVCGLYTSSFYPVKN

[2] = Thiol reactivity of the compound in PBS buffer assessed as adduct formation at 100 to 200 uM at pH 7.4 by UV-visible spectroscopic analysis
[3] = Glutathione reactivity of the compound in acetonitrile to tris-HCL buffer at pH 7.4 by NMR spectroscopic analysis
[4] = DTT reactivity of the compound in acetonitrile to tris-HCL buffer at pH 7.4 by NMR spectroscopic analysis
Tetrahymena pyriformis = assay: Toxicity in Tetrahymena pyriformis assessed as growth inhibition after 48 hrs
[5] = Glutathione reactivity of the compound in DMSO and phosphate buffer assessed as second order rate constant for adduct formation
[6] = Glutathione reactivity of the compound in DMSO/HEPES buffer assessed as second order rate constant for adduct formation at pH 7.4 by spectroscopic analysis
[7] = Inhibition of PI3K (unknown origin); set-up: species or system Homo sapiens
Exportin-1 = Exportin-1 (Homo sapiens, UniProt O14980); assay: Inhibition of CRM1-mediated nucleocytoplasmic transport in human HeLa cells after 90 mins by immunofluorescence assay; type: cell-based
Exportin-1, sequence (O14980 whole entry, the tested form may be a part): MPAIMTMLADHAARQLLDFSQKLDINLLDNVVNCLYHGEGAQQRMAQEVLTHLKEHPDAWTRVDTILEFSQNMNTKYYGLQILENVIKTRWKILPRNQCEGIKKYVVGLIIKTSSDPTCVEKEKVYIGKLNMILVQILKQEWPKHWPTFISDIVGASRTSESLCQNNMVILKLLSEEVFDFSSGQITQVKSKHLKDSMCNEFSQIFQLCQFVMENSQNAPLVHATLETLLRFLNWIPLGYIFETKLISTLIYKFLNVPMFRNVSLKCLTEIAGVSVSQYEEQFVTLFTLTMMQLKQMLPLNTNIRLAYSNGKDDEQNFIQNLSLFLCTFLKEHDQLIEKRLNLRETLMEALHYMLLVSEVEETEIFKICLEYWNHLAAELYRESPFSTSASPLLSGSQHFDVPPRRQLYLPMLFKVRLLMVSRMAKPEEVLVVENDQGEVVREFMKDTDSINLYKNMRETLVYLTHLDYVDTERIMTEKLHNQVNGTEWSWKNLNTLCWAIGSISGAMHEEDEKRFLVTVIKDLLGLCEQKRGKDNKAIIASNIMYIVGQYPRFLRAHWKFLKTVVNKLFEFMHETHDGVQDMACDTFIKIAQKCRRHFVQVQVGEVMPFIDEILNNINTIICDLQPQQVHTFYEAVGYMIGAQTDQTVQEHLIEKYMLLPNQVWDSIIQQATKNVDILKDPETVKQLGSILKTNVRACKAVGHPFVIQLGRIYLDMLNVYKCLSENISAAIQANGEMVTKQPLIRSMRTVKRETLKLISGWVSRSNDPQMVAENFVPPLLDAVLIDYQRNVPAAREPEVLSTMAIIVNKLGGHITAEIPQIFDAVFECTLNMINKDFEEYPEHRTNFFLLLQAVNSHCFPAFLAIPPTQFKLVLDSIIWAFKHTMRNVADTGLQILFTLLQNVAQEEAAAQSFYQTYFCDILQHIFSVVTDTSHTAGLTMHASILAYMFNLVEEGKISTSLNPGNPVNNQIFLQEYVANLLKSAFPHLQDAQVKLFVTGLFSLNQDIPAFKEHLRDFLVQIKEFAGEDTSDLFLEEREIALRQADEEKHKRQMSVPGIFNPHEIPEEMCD

[8] = tested on: Proto-oncogene tyrosine-protein kinase Src (Gallus gallus), P00523 [S345C]; assay: Ratio of Kinact to Ki for chicken c-Src S345C mutant (251 to 533 residues) expressed in Escherichia coli
[9] = molecular target: Proto-oncogene tyrosine-protein kinase Src (Gallus gallus, UniProt P00523, S345C); assay: Inhibition of chicken c-Src S345C mutant (251 to 533 residues) expressed in Escherichia coli by fluorescence assay
[10] = Cysteine reactivity of the compound assessed as adduct formation after 2 mins by mass spectrometric analysis
[11] = Inhibition of wild-type HCV genotype 1b protease using 5-FAM/QXL 520 as substrate after 60 to 90 mins by FRET-based assay; set-up: species or system Hepatitis C virus subtype 1b
[12] = Thiol reactivity of the compound in PBS buffer assessed as pseudo-first order rate constant for adduct formation in presence of 4-nitrobenzenethiol at pH 7.4 by stop-flow spectrophotometric analysis
[13] = Beta-mercaptoethanol reactivity of the compound in CD3OD/deuterio phosphate buffer assessed as equilibrium constant for adduct formation at pH 7.4 by […] analysis
[14] = Cysteine reactivity of the compound in CD3OD/deuterio phosphate buffer assessed as equilibrium constant for adduct formation at pH 7.4 by […] analysis
[15] = Butanethiol reactivity of the compound in CD3OD/deuterio phosphate buffer assessed as equilibrium constant for adduct formation at pH 7.4 by […] analysis
[16] = Methanethiol reactivity of the compound in CD3OD/deuterio phosphate buffer assessed as equilibrium constant for adduct formation at pH 7.4 by […] analysis
[17] = Glutathione reactivity of the compound in CD3OD/deuterio phosphate buffer assessed as equilibrium constant for adduct formation at pH 7.4 by […] analysis
[18] = molecular target: Sodium-dependent dopamine transporter (Rattus norvegicus, UniProt P23977); assay: Inhibition of [3H]dopamine uptake at DAT in rat brain striatal synaptosomes by liquid scintillation counting analysis; type: subcellular, Striatum
Sodium-dependent dopamine transporter, sequence (P23977 whole entry): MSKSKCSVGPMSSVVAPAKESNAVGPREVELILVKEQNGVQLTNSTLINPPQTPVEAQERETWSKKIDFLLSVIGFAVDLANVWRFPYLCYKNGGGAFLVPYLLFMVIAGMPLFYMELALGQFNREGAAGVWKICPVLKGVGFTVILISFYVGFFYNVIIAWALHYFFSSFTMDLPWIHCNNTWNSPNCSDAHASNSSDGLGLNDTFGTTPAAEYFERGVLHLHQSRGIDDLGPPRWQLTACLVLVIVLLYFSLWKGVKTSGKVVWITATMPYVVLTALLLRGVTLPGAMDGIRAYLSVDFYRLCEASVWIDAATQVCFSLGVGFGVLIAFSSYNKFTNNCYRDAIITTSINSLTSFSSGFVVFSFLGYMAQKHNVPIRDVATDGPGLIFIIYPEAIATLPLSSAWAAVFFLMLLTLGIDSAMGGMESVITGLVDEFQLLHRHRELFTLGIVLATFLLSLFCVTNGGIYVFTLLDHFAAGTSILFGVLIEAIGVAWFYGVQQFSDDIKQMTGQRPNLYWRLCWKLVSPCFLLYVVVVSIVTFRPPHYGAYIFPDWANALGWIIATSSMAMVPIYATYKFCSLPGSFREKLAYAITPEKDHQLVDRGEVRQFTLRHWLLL

[19] = Cysteine reactivity of the compound assessed as second order rate constant by 1H NMR analysis
[20] = Lysine reactivity of the compound in aqueous buffer assessed as drug recovery after 6 days at pH 7.4

`COc1ccc(C(=O)C(C(SCCN)c2ccc(OC)c(OC)c2)C(F)(F)F)c(OC)c1` (centres undefined) gave a K [1] of 17 M⁻¹ s⁻¹.

In the case of `COC(=O)/C=C/CNC(=O)c1cc(-c2ccc(C)cc2)no1`, the Ratio (Papain (Carica papaya)) is reported as 1.2 M⁻¹ s⁻¹.

`N#CC(C(N)=O)C(SCCO)c1c[nH]cn1` (centres undefined) showed a Kd [2] of 32800 µM.

Compound `COc1ccc(C(=O)C(C#N)C(SCCN)c2ccc(OC)c(OC)c2)c(OC)c1` (centres undefined) has a K [1] of 5700 M⁻¹ s⁻¹.

With `COc1ccc(C(=O)C(Br)C(SCCN)c2ccc(OC)c(OC)c2)c(OC)c1` (centres undefined) the K [1] was 2.9 M⁻¹ s⁻¹.

`O=C(/C=C/c1ccc(O)cc1)/C=C/c1ccc(O)cc1` showed an Activity [3] of 0.001 M⁻¹ s⁻¹ and a DTT second-order rate constant [4] of 0.014 M⁻¹ s⁻¹.

Work on `C=CC(=O)CCC` yielded an EC50 (Tetrahymena pyriformis) of 22 µM and a K [5] of 1170 M⁻¹ s⁻¹.

Work on `CCN(CC)c1ccc2cc(C(SC[C@H](NC(=O)CC[C@H](N)C(=O)O)C(=O)NCC(=O)O)C(C(C)=O)C(C)=O)c(=O)oc2c1` (some centres undefined) yielded a K [6] of 12 M⁻¹ s⁻¹.

For `CO[C@H]1OC(=O)/C(=C\N(C2CC2)C2CC2)C2=C(O)C(=O)C3=C([C@H](OC(C)=O)C[C@]4(C)C(=O)CC[C@@H]34)[C@]21C`, the IC50 [7] was 0.0003 µM.

For `CCN(CC)c1ccc2cc(C(CC(C)=O)SC[C@H](NC(=O)CC[C@H](N)C(=O)O)C(=O)NCC(=O)O)c(=O)oc2c1` (some centres undefined), the K [6] was 0.007 M⁻¹ s⁻¹.

`C/C=C(\C)C[C@H](C)[C@@H](O)[C@H](C)C(=O)[C@H](C)/C=C(C)/C=C/C[C@@H](C)/C=C(\C=C\[C@H]1CC=CC(=O)O1)CC` showed an IC50 (Exportin-1) of 0.01 µM.

For `CCN(CC)c1ccc2cc(C(CC=O)SC[C@H](NC(=O)CC[C@H](N)C(=O)O)C(=O)NCC(=O)O)c(=O)oc2c1` (some centres undefined), the K [6] was 0.41 M⁻¹ s⁻¹.

In the case of `COC(=O)/C=C/CNC(=O)[C@@H](CNC(C)=O)Cc1ccccc1`, the Ratio (Papain (Carica papaya)) is reported as 6.6 M⁻¹ s⁻¹.

`CCN(CC)c1ccc2cc(C(CC(=O)OC)SC[C@H](NC(=O)CC[C@H](N)C(=O)O)C(=O)NCC(=O)O)c(=O)oc2c1` (some centres undefined) showed a K [6] of 0 M⁻¹ s⁻¹.

`C=CS(=O)(=O)Nc1ccc2ncnc(Nc3cccc(Br)c3)c2c1` showed a Ratio [8] of 1.03 M⁻¹ s⁻¹ and an IC50 [9] of 0.002 µM.

`N#CC(C(N)=O)C(SCCO)c1cccc2[nH]ccc12` (centres undefined) gave a Kd [2] of 6200 µM.

Work on `CCCCC[C@@H](O)C/C=C1/C(=O)C[C@H](O)[C@@H]1C/C=C\CCCC(=O)O` yielded a Drug metabolism [10] of 60%.

Work on `C#CC(=O)OCC` [PROPYNOIC ACID ETHYL ESTER] yielded an EC50 (Tetrahymena pyriformis) of 17 µM and a K [5] of 105 M⁻¹ s⁻¹.

For `O=C1/C(=C/c2ccccc2)CC/C1=C\c1ccccc1`, the Activity [3] was 9.3 M⁻¹ s⁻¹ and the DTT second-order rate constant [4] was 2.3 M⁻¹ s⁻¹.

In the case of `C=CC(=O)N[C@H](C)C(=O)N1C[C@H](Oc2nccc3ccc(Br)cc23)C[C@H]1C(=O)N[C@]1(C(=O)CS(=O)(=O)C2CC2)C[C@H]1C=C`, the IC50 [11] is reported as 0.004 µM.

In the case of `Cc1cc(O)c(C)c(Sc2ccc([N+](=O)[O-])cc2)c1O`, the K [12] is reported as 7.3 ×10⁻¹ /s.

Compound `N#CC(C(N)=O)C(SCCO)c1ccc(-n2ccnc2)cc1` (centres undefined) has a Kd [2] of 1300 µM.

Compound `CCCCC[C@H](O)/C=C/[C@H]1C=CC(=O)[C@@H]1CCCCCCC(=O)OC` has a Ke [13] of 6.1 to 10.8 M⁻¹, a Ke [14] of 6.1 to 10.8 M⁻¹ and a Ke [15] of 6.1 to 10.8 M⁻¹. For the same compound, the Ke [16] was 6.1 to 10.8 M⁻¹ and the Ke [17] was 6.1 to 10.8 M⁻¹.

Compound `CS(=O)(=O)c1ccc(-c2cccc(C(SCCO)C(C#N)C(N)=O)c2)cc1` (centres undefined) has a Kd [2] of 200 µM.

For `C=CC(C)=O`, the IC50 [18] was 331 µM.

In the case of `C=C[C@@H]1C[C@]1(NC(=O)[C@@H]1C[C@@H](Oc2nccc3ccc(Br)cc23)CN1C(=O)[C@@H](C)NC(=O)CC)C(=O)CS(=O)(=O)C1CC1`, the IC50 [11] is reported as 1.15 µM.

`CCC(=C/[C@H](C)C/C=C/C(C)=C/[C@@H](C)C(=O)[C@@H](C)[C@H](O)[C@@H](C)C/C(C)=C/C(=O)O)/C=C/[C@@H]1OC(=O)C=C[C@@H]1C` [LEPTOMYCIN B] showed an IC50 (Exportin-1) of 0.001 µM.

Work on `CO[C@H]1OC(=O)/C(=C\Sc2ccccc2)C2=C(O)C(=O)C3=C([C@H](OC(C)=O)C[C@]4(C)C(=O)CC[C@@H]34)[C@]21C` yielded an IC50 [7] of 0.0005 µM.

Work on `C=C1C(=O)O[C@H]2[C@H]1[C@H](OC(=O)/C(C)=C\C)CC(=C)[C@@H]1[C@H](O)[C@H]3O[C@@]3(C)[C@@]12O` yielded a K [19] of 42 M⁻¹ s⁻¹ and a Drug recovery [20] of 75%.
